# In patent EP0359439A1, “Substituted pyridazinones” (ORION-YHTYMÄ OY, priority 1988, dated 1990):
# pIC50: −log10 of the molar value. “And” between values parts separate entries of the source, which are not always exact repeats. Equal values may be shown once.
# Biological target: Canine Cardiac Phosphodiesterase III
# Test: Inhibition of Canine Cardiac Phosphodiesterase III enzyme
# Type: biochemical
# Conditions: concentration showing 50% inhibition of Canine Cardiac Phosphodiesterase III enzyme; read-out: IC₅₀
# Text: In Table 5 the concentration of the compounds showing 50% inhibition of Canine Cardiac Phosphodiesterase III enzyme is given.
row,pIC50,Compound
1,6.03,"CC1(C)C(=O)Nc2cc3nc(-c4ccncc4)[nH]c3cc21 [BM 14.478, 5,7-Dihydro-7,7-dimethyl-2-(4-pyridinyl)-pyrrolo-(2,3-f)benzimidazol-6(1H)-one, reference compound]"
2,5.77,"O=C1CCC(c2ccc(N=Cc3ccc(O)cc3O)cc2)=NN1 [Compound A, 6-[4-(2,4-Dihydroxyphenyl)methyleneaminophenyl]-4,5-dihydropyridazin-3(2H)one]"
3,7.72,O=C1CCC(c2ccc(N=C(c3ccccc3)c3ccc(O)cc3O)cc2)=NN1 [Compound C]
4,7.22 and 7.00,"CC(=Nc1ccc(C2=NNC(=O)CC2C)cc1)c1ccc(O)cc1O (stereo not drawn) [Compound D, 6-[4-(1-(2,4-Dihydroxyphenyl)ethylidene)aminophenyl]-4,5-dihydro-5-methylpyridazin-3(2H)one]"
5,6.41,"CCC(=Nc1ccc(C2=NNC(=O)CC2)cc1)c1ccc(O)cc1O [Compound E, 6-[4-(1-(2,4-Dihydroxyphenyl)propylidene)aminophenyl]-4,5-dihydropyridazin-3(2H)one]"
6,< 5.00,"O=C1CCC(c2ccc(N=Cc3c(O)ccc4ccccc34)cc2)=NN1 [Compound F, 6-[4-(2-hydroxynaphtyl)methyleneaminophenyl]-4,5-dihydropyridazin-3(2H)one]"
7,6.85,"CC(=Nc1ccc(-c2ccc(=O)[nH]n2)cc1)c1ccc(O)cc1O [Compound H, 6-[4-(1-(2,4-Dihydroxyphenyl)ethylidene)aminophenyl]pyridazin-3(2H)one]"
8,8.70,"O=C1CCC(c2ccc(N=C(CCc3ccccc3)c3ccc(O)cc3O)cc2)=NN1 [Compound L, 6-[4-(1-(2,4-dihydroxyphenyl)-3-phenylpropylidene)aminophenyl]-4,5-dihydropyridazin-3(2H)one]"
9,5.70 and 5.82,"COc1ccc(-c2nc3cc(C4=NNC(=O)CC4C)ccc3[nH]2)cc1 (stereo not drawn) [Pimobendan, 4,5-Dihydro-6-(2-(4-methoxyphenyl)-1H-benzimidazol-5-yl)-5-methyl-3(2H)-pyridazinone, reference compound]"
